Source: patent publication US5574070A, “Substituted guanidines having high binding to the sigma receptor and the use thereof” (priority 1993, dated 1996)
Entries after “also recorded” stand apart in the source; their conditions may differ. Where two headings read alike, the source gives them in different places.

Experiments:
[1] = target: sigma receptor (Cavia porcellus, UniProt Q60492); test: biochemical
[2] = target: T1, sigma receptor from guinea pig brain (Cavia porcellus, UniProt Q60492); test: [3H]AZ-DTG binding and photoaffinity labeling of the sigma receptor
T1 construct: from tissue; host or cells: guinea pig brain membranes
T1 sequence (Q60492 whole entry): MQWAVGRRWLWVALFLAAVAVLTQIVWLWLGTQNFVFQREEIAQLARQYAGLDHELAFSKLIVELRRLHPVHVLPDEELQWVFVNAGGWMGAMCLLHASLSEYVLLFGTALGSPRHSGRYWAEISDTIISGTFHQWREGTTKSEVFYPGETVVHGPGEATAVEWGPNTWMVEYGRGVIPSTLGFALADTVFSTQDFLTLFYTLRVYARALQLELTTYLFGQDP
Description: (§1) The filters were then irradiated with long-wavelength UV light for a 15 minute period. Filter-bound proteins were solubilized with 50 mM Tris pH 7.4, 0.1% sodium dodecyl sulfate. Solubilized proteins were subjected to SDS-polyacrylamide gel electrophoresis.

[3] = system: mu, delta and kappa receptors; conditions: cited from earlier work
[4] = target: sigma receptor; test: [3H]DTG displacement radioligand binding assay, guinea pig brain membranes
[5] = system: sigma receptor; test: (+)[3H]3-PPP saturation binding, guinea pig brain membranes
Description: For radioreceptor assays aliquots of the frozen membrane suspension were thawed and diluted tenfold with 50 nM Tris/HCl buffer, pH 7.4. […] The protein concentration in the 1 ml final incubation volume was 800 ug, corresponding to 32 mg of brain tissue (original wet weight). […] After incubation for 90 minutes at room temperature the membrane suspension was rapidly filtered under vacuum through Whatman GF/B glass fiber filters using a Brandel 48 well cell harvester (Brandel, Gaithersburg, Md.). […] The filters were dissolved in 10 ml each of Cytoscint (Westchem Products, San Diego, Calif.) and radioactivity was measured by liquid scintillation spectrometry at a counting efficiency of 35-50%.

[6] = system: social interaction of rats; test: rat social interaction test; format: in vivo, rat (male Hooded Lister); conditions: for time spent in social interaction: i.p., 10 min session, n=6, P<0.001
Description: A second preferred animal model is the rat social interaction test described by Jones, B. J. et al., supra, wherein the time that two mice spend in social interaction is quantified. […] Both the familiarity and the light level of the test arena may be manipulated. Undrugged rats show the highest level of social interaction when the test arena is familiar and is lit by low light. Social interaction declines if the arena is unfamiliar to the rats or is lit by bright light. Anxiolytic agents prevent this decline. The overall level of motor activity may also be measured to allow detection of drug effects specific to social behaviors.
Male Hooded Lister rats (Glaxo bred, 200-250 g), were housed 5 to a cage and were kept in the laboratory environment for at least a week before testing. Rats paired in the test were taken from separate cages.
The test arena consisted of an open-topped box, 62×62×33 cm with a 7×7 matrix of infra-red photocell beams in the walls, 2.5 cm from the floor.
Testing involved placing each member of a pair of rats in opposite comers of the arena and then leaving them undisturbed for 10 min. while recording their behavior remotely on videotape. The behavioral assessments were made subsequently from the recordings. The time spent in social interaction was measured and expressed as a cumulative total for the 10 min session. The behaviors that comprised social interaction were: following with contact, sniffing (but not sniffing of the hindquarters), crawling over and under, tumbling, boxing and grooming.

[7] = system: anxiety behavior of mice; test: black:white test box (light/dark exploration) of mice
[8] = system: sigma receptor; conditions: cited from earlier work
[9] = system: adrenergic, muscarinic, cholinergic, or histaminergic sites; conditions: cited from earlier work
[10] = system: D1 subclass of dopamine receptors; conditions: cited from earlier work
[11] = system: D2 class of striatal dopamine receptors; conditions: cited from earlier work
[12] = system: dopamine-stimulated cAMP production; conditions: in vitro; cited from earlier work
[13] = system: rats; conditions: rat, in vivo; cited from earlier work
[14] = system: rhesus monkeys; conditions: introduction of foreign objects into cages; cited from earlier work
[15] = system: rats trained to discriminate cyclazocine; conditions: same concentrations; Holtzman, private communication; cited from earlier work
[16] = system: PCP receptor; conditions: Tam, personal communication; cited from earlier work
[17] = target: sigma receptor from guinea pig brain; test: [3H]AZ-DTG binding and photoaffinity labeling of the sigma receptor; conditions: in the dark; brain membranes
Description: as §1

[18] = system: sigma receptor; test: [3H]DTG saturation binding / binding characteristics, guinea pig brain membranes; conditions: for binding to sigma receptor sites (words): guinea pig brain membrane homogenates and slide-mounted rat and guinea pig brain sections
Description: Values obtained were the mean of quadruplicate determinations.
Frozen guinea pig brains (Pel-Freeze, Rogers, Ariz.) were homogenized in 10 volumes (w/v) of 0.32M sucrose using a Polytron homogenizer. The homogenate was spun at 900×g for 10 minutes at 4° C. The supernatant was collected, and spun at 22,000×g for 20 minutes at 4° C. The pellet was resuspended in 10 volumes of 50 mM Tris/HCl buffer, pH 7.4, incubated at 37° C. for 30 minutes and spun again at 22,000×g for 20 minutes at 4° C. The pellet was then resuspended in 10 volumes of 50 mM Tris/HCl buffer, pH 7.4 and 10 ml aliquots of this membrane suspension were stored frozen at -70° C. until used in the binding assay.
For radioreceptor assays aliquots of the frozen membrane suspension were thawed and diluted tenfold with […] Tris/HCl buffer, pH 7.4. […] The protein concentration in the 1 ml final incubation volume was 800 ug, corresponding to 32 mg of brain tissue (original wet weight). […] After incubation for 90 minutes at room temperature the membrane suspension was rapidly filtered under vacuum through Whatman GF/B glass fiber filters using a Brandel 48 well cell harvester (Brandel, Gaithersburg, Md.). The filters were washed with 3×5 ml ice-cold […] Tris buffer (pH 7.4 at room temperature). The filters were dissolved in 10 ml each of Cytoscint (Westchem Products, San Diego, Calif.) and radioactivity was measured by liquid scintillation spectrometry at a counting efficiency of 35-50%. Saturation data were evaluated by Scatchard analysis using both the EBDA NcPherson, G. A., Computer Programs Biomed.

[19] = system: sigma site in brain sections; test: receptor autoradiography of [3H]DTG binding, brain sections; parameters: species or system guinea pig and rat; conditions: 2 nM [3H]DTG
Description: Male Sprague Dawley rats (200-250 g) and NIH guinea pigs (300-350 g) were sacrificed, their brains rapidly removed and processed for receptor autoradiography according to the method of Herkenham et al. J. Neuroscience 2:1129-1149 (1982).
Incubations were terminated by 4×2 minute washes in […] Tris-HCl (pH 7.4, 4° C.) with 1 mg/ml BSA, rapidly dried under a stream of cool air and placed in x-ray cassettes with ^3 H-sensitive film (^3 H-ultrofilm, LKB). Films were developed 6-8 weeks later (D-19, Kodak).

[20] = system: anxiety behavior of mice; conditions: mouse, in vivo, ip, 10 mg/kg
[21] = Example 25, guinea pig brain membrane homogenates, read-out: IC50 binding values

sigma receptor (Cavia porcellus, UniProt Q60492), sequence (Q60492 whole entry): as above

CCCN1CCCC(c2cccc(O)c2)C1 (single isomer, unassigned; (+)) [(+)3-PPP, 3-(3-hydroxyphenyl)-N-(1-propyl)-piperidine, reference compound]
IC50 [1]: 33 ± 12 nM | effect on [3H]AZ-DTG labeling of the 29 kD polypeptide ([2]; 10 uM): completely blocked

C=CCN1CCC2(C)c3cc(O)ccc3CC1C2C (single isomer, unassigned; (-)) [(-)SKF 10,047, N-allyl-normetazocine, reference compound]
binding to delta, mu and kappa receptors [3]: apparently labeled the mu and kappa receptors but not the sigma receptors | IC50 ([4]; read-out: IC50 binding values): 4000 ± 566 nM | IC50 ([4]; read-out: IC50 vs. [3H]DTG): 4000 nM

CCCN1CCC[C@H](c2cccc(O)c2)C1 [(+)[^3 H]3-PPP, (+)[^3 H]3-(3-hydroxyphenyl)-N-(1-propyl)-piperidine]
Bmax [5]: 80 pmol/g fresh brain weight | Kd [5]: 30 nM

CCCN1CCC[C@@H](c2cccc(O)c2)C1 [(-)3-PPP, reference compound]
IC50 [1]: 235 nM | IC50 [4, 21]: 280 ± 21 nM | IC50 ([4]; read-out: IC50 vs. [3H]DTG, Table III, ± SEM, average from 2-4 separate experiments in triplicate): 280 ± 21 nM

Cc1ccccc1NC(=N)NC12CC3CC(CC(C3)C1)C2 [AdTG, N-(Adamantan-1-yl)-N'-(2-methylphenyl)guanidine]
dose giving about the same result, relative to diazepam ([6]; 0.1 mg/kg vs 1 mg/kg diazepam): about the same result at one-tenth the dose of diazepam | time spent in social interaction [6]: significantly increased social interactions | in vitro [3H]DTG displacement activity [4]: found to possess the aforesaid in vitro [^3 H]DTG displacement activity | IC50 [4, 21]: 7.6 ± 0.3 nM | IC50 ([4]; list of especially preferred compounds, read-out: IC50 (high binding to the sigma receptor)): 7.6 nM | IC50 ([4]; read-out: IC50, [3H]DTG displacement in guinea-pig brain homogenates, most potent, n=6): 2.6 ± 0.6 nM | IC50 ([4]; read-out: IC50 vs [3H]DTG, Table I, guinea pig brain membranes): 3 ± 1 nM | numbers of line crossings and/or rears in the light compartment (vs dark) ([7]; oral): increased at the expense of those in the dark compartment | proportion of time in light area / percentage of time in black compartment ([7]; oral): increased significantly the proportion of time the mice spent in the larger, lighted area | anxiolytic activity ([7]; oral, 1 mg/kg): have anxiolytic activity when orally administered | latency to entering the dark compartment ([7]; s.c.): increased in a dose-dependent manner | numbers of line crossings and/or rears in the light compartment (vs dark) ([7]; s.c.): increased at the expense of those in the dark compartment | proportion of time spent in the lighted area ([7]; s.c.): dose dependently increased the proportion of time the mice spent in the larger, lighted area | sedation: total numbers of rears and line crossings ([7]; s.c.): did not decrease significantly showing that the drug was not sedative at this level

OC(CCCN1CCN(c2ncc(F)cn2)CC1)c1ccc(F)cc1 (stereo not drawn) [BMY 14802]
binding to the sigma receptor [8]: binds with relatively high affinity to the sigma receptor | potency of dextrorotatory vs levorotatory enantiomer at inhibiting sigma binding [8]: 10 times | binding to adrenergic, muscarinic, cholinergic, or histaminergic sites [9]: does not bind to the adrenergic, muscarinic, cholinergic, or histaminergic sites | interaction with D1 subclass / inhibition of [3H]SCH 23390 binding in vitro [10]: does not appear to interact with the D1 subclass of dopamine receptors | maximal density of [3H]spiperone-labeled D2 site ([11]; chronic administration (20 days) to rats): did not increase the maximal density | inhibition of [3H]spiperone binding to D2 [11]: does not inhibit the binding of [^3 H]spiperone | inhibition of dopamine-stimulated cAMP production [12]: does not inhibit dopamine-stimulated cAMP production | catalepsy [13]: did not cause catalepsy in rats

O=C1CC2(CCCC2)CC(=O)N1CCCCN1CCN(c2ncccn2)CC1 [Buspirone]
taming of the aggressive response [14]: efficacy in a predictive animal model

N=C(Nc1ccccc1)Nc1ccccc1 [DPG, N,N'-di(phenyl)guanidine]
substitution for cyclazocine [15]: fully substitutable for cyclazocine

Cc1ccccc1NC(=N)Nc1ccccc1C [DTG, N,N'-di-(2-methylphenyl)guanidine]
activity in [3H]-PCP binding assay [16]: virtually inactive | in vitro [3H]DTG displacement activity [4]: found to possess the aforesaid in vitro [^3 H]DTG displacement activity | substitution for cyclazocine [15]: fully substitutable for cyclazocine | anxiolytic activity ([7]; s.c.): does not exhibit anxiolytic activity | rears, crossings, % time in the black compartment ([7]; s.c., concentrations tested): did not affect significantly

Cc1ccccc1NC(=N)Nc1ccc(N=[N+]=[N-])cc1C [[^3 H]AZ--DTG, [^3 H]-m-azido-1,3-di-o-tolylguanidine]
size of polypeptide selectively labeled ([2]; fluorography of SDS-PAGE gels after UV irradiation): 29 kD | Kd [17]: 28 nM

[3H]c1ccc(NC(=N)Nc2ccc([3H])cc2C)c(C)c1 [[^3 H]DTG, N,N'-di-(4-[^3 H]-2-methylphenyl)-guanidine]
specific binding, % of total binding [18]: 90-97% | total binding ([18]; 0.9 nM [3H]DTG): 2700 cpm | nonspecific binding ([18]; 0.9 nM [3H]DTG, 10 uM DTG or 10 uM haloperidol): 50-150 cpm | abolition of specific binding by boiling of membranes ([18]; 100° C. for 10 minutes prior to assay): 90% | reversibility of binding ([18]; after addition of 10 uM unlabeled DTG): fully reversible | binding to sigma receptor sites (words) [18]: binds specifically and with high affinity to a single class of binding sites; also recorded: bound specifically, saturably, reversibly, and with high affinity | binding to sigma receptor sites (words) ([18]; listed as [^3 H]--DTG): binds reversibly, saturably, selectively and with high affinity | maximum number of binding sites (Bmax) ([18]; original wet weight): 85 pmol/g brain tissue | time to binding equilibrium ([18]; room temperature): 60 to 90 min | distribution/density of [3H]DTG binding [19]: low density of specific binding diffusely distributed throughout the gray matter; also recorded: heterogeneous distribution of enriched binding in limbic and sensorimotor structures; also recorded: Very dense binding was seen in the choroid plexus; also recorded: very dense binding was found in the subcommissural organ; also recorded: The oculomotor nucleus, and more caudally, the trochlear nucleus were very densely labeled; also recorded: In the hindbrain the locus coeruleus was the most densely labeled nucleus | specific binding of total [3H]DTG binding [4]: > 90%

CN1C(=O)CN=C(c2ccccc2)c2cc(Cl)ccc21 [diazepam, reference compound]
time spent in social interaction [6]: significantly increased social interactions | sedation: numbers of rears and line crossings [20]: decreased significantly showing that the drug was markedly sedative | displacement of [3H]DTG [4]: no significant displacement | numbers of line crossings and/or rears in the light compartment ([7]; mouse, in vivo, ip): increased at the expense of those in the dark compartment | proportion of time in light area / percentage of time in black compartment ([7]; mouse, in vivo, ip): dose-dependently increased the proportion of time the mice spent in the larger, lighted area
